From US20020065314A1, “COMPOSITIONS AND METHOD FOR STIMULATING HAIR GROWTH” (priority 1995, published 2002)
“Also recorded” adds a separate entry of the source.

Assays:
C57BL/KsJ db/+ mice [1] = experiment: Application to full-thickness incisional and excisional wounds; assay type: in vivo, mouse
Protocol: An incisional, full-thickness wound, about 2 cm long was made through the dorsal skin of five mice (strain C57BL/KsJ db/+). A single dose of about 10 mg of n-butyl cyanoacrylate (in 10 μl of Nexaband^R Liquid) was applied to the bottom of the wound, and the wound closed with two surgical clips. Control animals which received 10 μl of phosphate buffered saline (PBS: 0.144 g/l KH2PO4, 9.0 g/l NaCl, 0.795 g/l Na2HPO4.7H2O; pH 7.2) were processed identically. During the period of 1-90 days post application, the effect of n-butyl cyanoacrylate treatment was examined by macroscopic observation.
In a group of five C57BL/KsJ db/+ mice, a full-thickness excisional wound was made with a biopunch (6 mm diameter) on the dorsal skin. A single dose of 9 mg of n-butyl cyanoacrylate (in 10 μl of Nexaband^R Liquid) was applied to the bottom of the wound, and the wound was left open. Control animals which received 10 μl of PBS were treated identically.

NIH/3T3 fibroblasts = experiment: Fibroblast cell proliferation assay with extracts of treated skin; assay type: cell-based
Protocol: A single topical application of 20 mg of n-butyl cyanoacrylate was made to an area of shaved skin on the dorsum of strain C57BL/KsJ db/+ mice. At days 10 and 20 post-treatment, skin samples were excised from treated areas. Skin tissue was frozen in dry ice, minced, homogenized in ice-cold PBS, and centrifuged at 15,000 g for 30 minutes at 4° C. The protein concentration of supernatants was adjusted to 1.0 mg/ml by the BioRad assay procedure (BioRad Laboratories, Richmond, Calif.). Skin samples from untreated areas of the same strain were harvested and processed identically. Mouse serum albumin was prepared at a concentration of 1.0 mg/ml in PBS as a control. An aliquot of each supernatant extract was fractionated according to size with a nominal 30 kilo Dalton (kDa) cutoff, and the low molecular weight fraction (≦30 kDa) was included in the fibroblast cell proliferation assay, as follows.
The supernatant extracts from treated and untreated skin samples, and mouse serum albumin control, were added to a quartet of wells in a 96 well plate, and 2-fold serially diluted 11 times. NIH/3T3 fibroblasts (ex American Type Culture Collection, Rockville, Md.) were harvested at about 80% confluence, seeded into each well at a density of 5,000 cells per well, and supplemented with serum-free assay medium (QBSF 56, Quality Biological Inc., Gaithersburg, Md.). Cell proliferation was determined according to the protocol of the CellTitre 96 Non-Radioactive Cell Proliferation Assay (Promega, Madison, Wis.).

[2] = tested on: skin of mice (C57BL/KsJ db/+ and C57BL/KsJ db/db); experiment: Hair growth in organ culture of treated skin (ex vivo); design: species or system mouse
Protocol: The shaved dorsal skin of mice (C57BL/KsJ db/+ and C57BL/KsJ db/db) was treated with n-butyl cyanoacrylate by a single topical application at a dose of 10 mg cm^2. One hour later, the skin (0.5×1.0 cm) containing both treated and untreated areas was excised, rinsed in PBS, cultured in Dulbecco's Modified Eagle Medium (Gibco BRL, Gaithersburg, Md.) supplemented with 10% fetal bovine serum (HyClone Laboratories, Logan, Utah) at an atmosphere of […] and 5% CO2, 37° C. Hair growth was recorded by macroscopy.

[3] = tested on: C57BL/KsJ db/+ and C57BL/KsJ db/db mice; experiment: Dose of n-butyl cyanoacrylate and response of hair growth (macroscopic score); assay type: in vivo, mouse
Protocol: The effect of n-butyl cyanoacrylate concentration on stimulation of hair growth was investigated as follows. Five mice of each strains C57BL/KsJ db/+ and C57BL/KsJ db/db were shaved on the dorsum, treated with a single topical application of either undiluted Nexaband^R Liquid (containing about 10 mg of n-butyl cyanoacrylate per 10 μl), or Nexaband^R Liquid diluted to 50% or 25% with vegetable oil. Hair growth was macroscopically scored at 49, 61 and 86 days after treatment.

C57BL/KsJ db/+ mice [4] = experiment: Subdermal application by subcutaneous injection; assay type: in vivo, mouse
Protocol: In another example, 20 μl of n-butyl cyanoacrylate was applied subdermally by subcutaneous injection to a group of C57BL/KsJ db/+ mice.

[5] = 25%, C57BL/KsJ db/+, 49 days after treatment
[6] = 25%, C57BL/KsJ db/+, 61 days after treatment
[7] = 25%, C57BL/KsJ db/+, 86 days after treatment
[8] = 25%, C57BL/KsJ db/db, 49 days after treatment
[9] = 25%, C57BL/KsJ db/db, 61 days after treatment
[10] = 25%, C57BL/KsJ db/db, 86 days after treatment
[11] = 50%, C57BL/KsJ db/db, 49 days after treatment
[12] = 50%, C57BL/KsJ db/db, 61 days after treatment
[13] = 50%, C57BL/KsJ db/db, 86 days after treatment

`C=C(C#N)C(=O)OCCCC` [n-butyl cyanoacrylate] was tested, and the “microscopic examination of wound site” value (C57BL/KsJ db/+ mice [1]; full thickness incisional or excisional wound) was “induced de novo hair follicle formation in the subcutaneous adipose layer, in the dermis, as well as in the wound site”, the “hair growth at wound (photograph)” value (C57BL/KsJ db/+ mice [1]; incision wound, day 17 post treatment) was “profound hair growth along the linear wound margin” and the “hair growth at wound” value (C57BL/KsJ db/+ mice [1]; incisional and excisional wounds) was “stimulated hair growth along the wound margin”. The “histology of wound site” value (C57BL/KsJ db/+ mice [1]; incisional wound, day 17 post treatment) was “development of many new hair follicles and little scar tissue in the wound site”, the “activity of extract from skin harvested at 20 days post-treatment vs 10 days” value (NIH/3T3 fibroblasts) was “more active than the extract from skin harvested at 10 days post-treatment” and the “activity of protein extracts of treated skin vs extract of untreated skin” value (NIH/3T3 fibroblasts; skin treated topically with 20 mg, harvested days 10 and 20) was “more active in stimulating proliferation of NIH/3T3 cells”. For the same compound, the “activity of low molecular weight fraction (30 KDa or less) of skin extract” value (NIH/3T3 fibroblasts; treated and untreated skin) was “no discernible effect on cell proliferation; also recorded: filtration step removes stimulation”, the “hair growth in organ culture (photograph)” value ([2]; 14 days in organ culture after treatment) was “hair growth is apparent in the treated area” and the “time to which hair growth lasted (end of the experiment)” value ([2]; organ culture, post treatment) was at least 25 days. For the same compound, the “time at which hair growth in the treated area was observed” value ([2]; organ culture, single topical application 10 mg cm^2 one hour before excision, post treatment) was 7 to 12 days, the “Number of Animals Exhibiting Hair Growth, Score 0” value (“Number … Score 0” below) [3, 5] was 4 and the “Number of Animals Exhibiting Hair Growth, Score 1+” value (from here on “Number … Score 1+”) [3, 5] was 1. For the same compound, the “Number … Score 0” value [3, 6] was 2, the “Number … Score 1+” value [3, 6] was 3 and the “Number … Score 0” value [3, 7] was 3. The “Number … Score 1+” value [3, 7] was 2, the “Number … Score 0” value [3, 8] was 2 and the “Number of Animals Exhibiting Hair Growth, Score 2+” value (from here on “Number … Score 2+”) [3, 8] was 2. For the same compound, the “Number of Animals Exhibiting Hair Growth, Score 3+” value (from here on “Number … Score 3+”) [3, 8] was 1, the “Number … Score 0” value [3, 9] was 2 and the “Number … Score 1+” value [3, 9] was 1. The “Number … Score 2+” value [3, 9] was 1, the “Number … Score 3+” value [3, 9] was 1 and the “Number … Score 2+” value [3, 10] was 3. For the same compound, the “Number … Score 3+” value [3, 10] was 2, the “Number … Score 2+” value [3, 11] was 2 and the “Number … Score 3+” value [3, 11] was 3. For the same compound, the “Number … Score 2+” value [3, 12] was 1, the “Number … Score 3+” value [3, 12] was 4 and the “Number … Score 2+” value [3, 13] was 2. The “Number … Score 3+” value [3, 13] was 3, the “Number … Score 3+” value ([3]; 100% (10 mg/10 μl), C57BL/KsJ db/+, 49 days after treatment) was 5 and the “Number … Score 3+” value ([3]; 100% (10 mg/10 μl), C57BL/KsJ db/+, 61 days after treatment) was 5. The “Number … Score 3+” value ([3]; 100% (10 mg/10 μl), C57BL/KsJ db/+, 86 days after treatment) was 5, the “Number … Score 3+” value ([3]; 100% (10 mg/10 μl), C57BL/KsJ db/db, 49 days after treatment) was 5 and the “Number … Score 3+” value ([3]; 100% (10 mg/10 μl), C57BL/KsJ db/db, 61 days after treatment) was 5. For the same compound, the “Number … Score 3+” value ([3]; 100% (10 mg/10 μl), C57BL/KsJ db/db, 86 days after treatment) was 5, the “dose dependence of induced hair growth” value ([3]; undiluted, 50%, 25%) was “dose-dependent” and the “histology after subcutaneous injection” value (C57BL/KsJ db/+ mice [4]; 68 days after subcutaneous injection) was “development of new hair follicles in the treated site”. The “histology after subcutaneous injection vs untreated site” value (C57BL/KsJ db/+ mice [4]; subcutaneous injection, 20 μl) was “induces de novo hair follicle formation and the thickening of full-thickness skin”.
